Structures are written as SMILES. pIC50: −log10 of the molar value.

One may read the pIC50 as −log10 of the IC50, conventionally taken in molar units.

The test addresses T1, CCK-A receptor (Rattus norvegicus, UniProt P30551).
T1 construct: from tissue; host or cells: pancreas membranes of Sprague-Dawley rat
T1 sequence (P30551 1-444): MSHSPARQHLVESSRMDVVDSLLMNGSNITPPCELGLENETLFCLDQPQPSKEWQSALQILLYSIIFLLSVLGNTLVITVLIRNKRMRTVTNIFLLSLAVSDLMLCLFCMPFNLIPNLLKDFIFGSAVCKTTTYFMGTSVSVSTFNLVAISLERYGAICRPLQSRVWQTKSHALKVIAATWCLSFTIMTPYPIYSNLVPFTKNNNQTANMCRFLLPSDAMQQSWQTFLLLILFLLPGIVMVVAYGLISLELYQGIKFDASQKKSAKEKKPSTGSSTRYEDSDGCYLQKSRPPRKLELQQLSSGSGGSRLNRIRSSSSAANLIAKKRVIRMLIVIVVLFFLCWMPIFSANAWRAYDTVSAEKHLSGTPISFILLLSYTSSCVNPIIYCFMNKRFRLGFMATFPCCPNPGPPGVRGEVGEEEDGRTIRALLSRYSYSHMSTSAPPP
Briefly: CCK-A receptor binding assay (displacement of 3H-L-364,718 from rat pancreas membranes). On the set-up: species or system Sprague-Dawley rat. The settings on record: 3H-L-364,718 0.2 nM, 37° C., 30 min, read-out: In vitro Binding Data IC50 CCK. Here is the method:
Washer Buffer (for use with Brandel Cell Harvester):
30 liters of 50 mM Tris, ph 7.7: Dissolve 181.7 g. Tris base in 4 1. deionized water at room temperature. Adjust pH to 7.7 with 6 N HCl and Q.S. to 30 1.
50 mM Tris-Cl, 5 mM MgCl2, 5 mM dithio-thretiol, 0.14 mg/ml bacitracin, and 2 mg/ml bovine serum albumin.
1 liter of 5X stock buffer:
30.28 g. Tris base per 800 ml D.I. water 5.09 g. MgCl2 6 H2 O, pH to 7.7 at room temperature with 6N HCl and Q.S. 1 liter, store at 4° C.
250 ml working buffer kept on ice:
50 ml of 5X stock buffer 0.1928 g. dithiothretiol (5 mM), 35 mg bacitracin (0.14 mg/ml), and 0.5 g. BSA (2mg/ml).
Unlabeled L-364,718(nonpeptide ligand):
Unlabeled L-364,718 (300 nM final concentration) is used to define nonspecific binding. A 3 mM solution is made in absolute ethanol and stored in a scintillation vial at -70° C. Aliquots are diluted 100-fold in the assay.
A Sprague-Dawley rat is sacrificed by asphyxiation with carbon dioxide and the pancreas removed. The tissue is immersed in cold wash buffer and carefully trimmed of fat, connective tissue, blood vessels, blotted and weighed. The tissue is homogenized in a Sorvall SS-34 centrifuge tube in 50 volumes of wash buffer using a Polytron at setting 7 for 15 seconds. The tissue is centrifuged (Sorvall SS-34) at 19,000 rpm for 10 min. The supernatant is poured off and the pellet resuspended in sufficient buffer to obtain a contraction of 40 mg tissue wet weight/ml. Separate aliquots (2,3ml) are placed in each of 8 centrifuge tubes and centrifuged as before. The supernatants are poured off and the pellets stored at -70° C. Stored pellets are sufficient for the assay of 160 tubes and are stable for 1-2 months.
During the assay the stored membranes are resuspended in 40 ml of assay buffer by scraping the pellet off the wall of the centrifuge tube and washing it into a teflon-glass homogenizer. Membranes are resuspended by 5 passes with the teflon pestle and the membranes stored on ice until ready for use.
Preparation of Compounds:
Compounds are prepared in DMSO (dimethyl sulfoxide) or in assay buffer. The majority of structures active as CCK antagonists generally require DMSO for complete solubility. Approximately 2-3 mg of compound is weighed directly into a 13×100 mm test tube and sufficient DMSO added to obtain a working stock solution at a concentration 100 fold greater than the highest concentration being tested in the assay. A total of 10 μl of each concentration of drug is added into a final volume of 1 ml to yield a 100 fold dilution of the, working stock solution. Control binding tubes ("totals and nonspecifics") are also treated with 10 μl DMSO.
^3 H-L-364,718 is obtained from New England Nuclear (Cat. #971) and is used as supplied. The final assay concentration of ^3 H-L-364,718 in assay buffer should be 0.2 nM in a final assay volume of 1 ml. ^3 H-L-364,718 (0.2 pmol) is added into the assay in a volume of 25 μl (8 nM working stock solution). The required dilution (usually>1000 fold) is obtained by dividing the working stock concentration into the concentration of the specific lot.
Samples are prepared in triplicate and a "total" (buffer addition) and "nonspecific" (300 nM unlabeled L-364,718) set of tubes included in each set of 24 tubes. The remaining 6 sets of triplicates are used either for screening or IC50 determinations. The order of addition is drugs-DMSO, buffer, unlabeled L-364,718, ^3 H-L-364,718, and to start the assay, membranes.
While tubes are incubating a shaking water bath at 37° C. for 30 min Brandel deposit/dispense filters are presoaked in wash buffer. Following the end of the incubation, sets of 24 tubes are rapidly washed with assay buffer as follows. Assay buffer is added to the incubation tubes to the height of the uppermost cross support in the standard Brandel test tube rack and the contents immediately aspirated. This process is repeated twice more, the filter removed, marked and the next set of 24 tubes processed. […]
In the case of `CC(C)C[C@H](NC(=O)[C@H]1Cc2c([nH]c3ccccc23)CN1C(=O)Nc1cccc(C(F)(F)F)c1)C(=O)N[C@@H](CC(=O)O)C(N)=O` [Example 63], the pIC50 is 4.07. Turning to `CC(C)C[C@H](NC(=O)[C@H]1Cc2c([nH]c3ccccc23)CN1C(=O)c1ccc2ccccc2c1)C(=O)N[C@@H](CC(=O)O)C(N)=O` [Example 10, N-[(3R)-2-(2-naphthoyl)-1,2,3,4-tetrahydro-9H-pyrido[3,4-b]indole-3-carboxyl]-L-leucyl-L-aspartic acid amide], the negative-log IC50 (pIC50) was 4.60. The value for `CCOC(=O)c1ccccc1NC(=O)[C@H]1Cc2c([nH]c3ccccc23)CN1C(=O)OCc1ccccc1` [Example 17] was less than 5.00; that for `Cc1cccc(NC(=O)N2Cc3[nH]c4ccccc4c3C[C@@H]2C(=O)N[C@@H](CC(C)C)C(=O)N[C@@H](CC(=O)O)C(N)=O)c1` [Example 11, N-[(3R)-2-(3-methylphenylcarbamoyl)-1,2,3,4-tetrahydro-9H-pyrido[3,4-b]indole-3-carboxyl]-L-leucyl-L-aspartic acid amide] was 4.47.

Turning to `CC[C@H](C)[C@H](NC(=O)[C@H]1Cc2c([nH]c3ccccc23)CN1C(=O)Nc1ccc(Cl)c(Cl)c1)C(=O)N[C@@H](CC(=O)O)C(N)=O` [Example 24, N-[(3R)-2-(3,4-dichlorophenylcarbamoyl)-1,2,3,4-tetrahydro-9H-pyrido[3,4-b]indol-3-yl]carbonyl-L-isoleucyl-L-aspartic acid amide], the pIC50 was 4.44. The value for `Cc1cccc(NC(=O)N2Cc3[nH]c4ccccc4c3C[C@@H]2C(=O)N[C@H](CC(C)C)C(=O)N[C@H](CC(=O)O)C(N)=O)c1` [Example 45] was 4.11. The value for `Cc1cccc(NC(=O)N2Cc3[nH]c4ccccc4c3C[C@@H]2C(=O)N[C@@H](C)C(=O)N[C@@H](CC(=O)O)C(N)=O)c1` [Example 58] was 4.19; that for `O=C(Nc1ccccc1C(=O)N1CCCC1)[C@H]1Cc2c([nH]c3ccccc23)CN1C(=O)OCc1ccccc1` [Example 18, pyrrolidine-2-N-[(3R)-2-carbobenzoxy-1,2,3,4-tetrahydro-9H-pyrido-[3,4-b]indole-3-carboxyl]aminobenzamide] was 4.60; that for `Cc1cccc(NC(=O)N2Cc3[nH]c4ccccc4c3C[C@H]2C(=O)N[C@@H](CC(C)C)C(=O)N[C@@H](CC(=O)O)C(N)=O)c1` [Example 12, N-[(3S)-2-(3-methylphenylcarbamoyl)-1,2,3,4-tetrahydro-9H-pyrido[3,4-b]indole-3-carboxyl]-L-leucyl-L-aspartic acid amide] was 3.77. As for `CC(C)C[C@H](NC(=O)[C@@H]1Cc2c([nH]c3ccccc23)CN1)C(=O)N[C@@H](CC(=O)O)C(N)=O` [Example 2, N-[(3S)-1,2,3,4-tetrahydro-9H-pyrido[3,4-b]indole-3-carboxyl]-L-leucyl-L-aspartic acid amide], the figure is less than 3.52; as for `CCOC(=O)c1cccc(NC(=O)[C@H]2Cc3c([nH]c4ccccc34)CN2C(=O)OCc2ccccc2)c1` [Example 16, ethyl 3-N-[(3R)-2-carbobenzoxy-1,2,3,4-tetrahydro-9H-pyrido[3,4-b]indole-3-carboxyl]aminobenzoate], 4.60 to 5.00; as for `O=C(Nc1ccccc1C(=O)N1CCCC1)[C@H]1Cc2c([nH]c3ccccc23)CN1C(=O)c1ccc2ccccc2c1` [Example 20, pyrrolidine-2-N-[(3R)-2-(2-naphthoyl)-1,2,3,4-tetrahydro-9H-pyrido[3,4-b]indole-3-carboxyl]aminobenzamide], less than 4.52.

On to `CCCCCN(CCCCC)C(=O)[C@H](CC(=O)O)NC(=O)[C@H]1Cc2c([nH]c3ccccc23)CN1C(=O)Nc1cccc(C)c1` [Example 46, N-[(3R)-2-(3-methylphenylcarbamoyl)-1,2,3,4-tetrahydro-9H-pyrido[3,4-b]indole-3-carboxyl]-L-aspartic acid dipentyl amide], for which the negative-log IC50 (pIC50) is 5.41. With `CC(C)C[C@H](NC(=O)[C@H]1Cc2c([nH]c3ccccc23)CN1C(=O)Nc1ccccc1)C(=O)N[C@@H](CC(=O)O)C(N)=O` [Example 14, N-[(3R)-2-phenylcarbamoyl-1,2,3,4-tetrahydro-9H-pyrido[3,4-b]indole-3-carboxyl]-L-leucyl-L-aspartic acid amide], the pIC50 was less than 4.00. As for `CC(C)C[C@H](NC(=O)[C@H]1Cc2c([nH]c3ccccc23)CN1C(=O)c1ccccc1)C(=O)N[C@@H](CC(=O)O)C(N)=O` [Example 9, N-[(3R)-2-benzoyl-1,2,3,4-tetrahydro-9H-pyrido[3,4-b]indole-3-carboxyl]-L-leucyl-L-aspartic acid amide], the figure is 3.64; as for `Cc1cccc(NC(=O)N2Cc3[nH]c4ccccc4c3C[C@@H]2C(=O)N2CCC[C@H]2C(=O)N[C@@H](CC(=O)O)C(N)=O)c1` [Example 44, N-[(3R)-2-(3-methylphenylcarbamoyl)-1,2,3,4-tetrahydro-9H-pyrido[3,4-b]indole-3-carboxyl]-L-prolyl-L-aspartic acid amide], 4.01.

Consider `O=C(Nc1ccccc1C(=O)N1CCCC1)[C@@H]1Cc2c([nH]c3ccccc23)CN1C(=O)OCc1ccccc1` [Example 19, pyrrolidine-2-N-[(3S)-2-carbobenzoxy-1,2,3,4-tetrahydro-9H-pyrido[3,4-b]indole-3-carboxyl]aminobenzamide], for which the negative-log IC50 (pIC50) was 4.70.

As for `CC(C)C[C@H](NC(=O)[C@H]1Cc2c([nH]c3ccccc23)CN1C(=O)Nc1cc(Cl)cc(Cl)c1)C(=O)N[C@@H](CC(=O)O)C(N)=O` [Example 59, N-[(3R)-2-(3,5-dichlorophenylcarbamoyl)-1,2,3,4-tetrahydro-9H-pyrido[3,4-b]indole-3-carboxyl]-L-leucyl-L-aspartic acid amide], the pIC50 was 4.47. The value for `CCOC(=O)c1ccc(NC(=O)[C@H]2Cc3c([nH]c4ccccc34)CN2C(=O)OCc2ccccc2)cc1` [Example 15, ethyl 4-N-[(3R)-2-carbobenzoxy-1,2,3,4-tetrahydro-9H-pyrido[3,4-b]indole-3-carboxyl]aminobenzoate] was 5.05. The value for `Cc1cccc(NC(=O)N2Cc3[nH]c4ccccc4c3C[C@@H]2C(=O)N[C@H](CC(C)C)C(=O)N[C@@H](CC(=O)O)C(N)=O)c1` [Example 57, N-[(3R)-2-(3-methylphenylcarbamoyl)-1,2,3,4-tetrahydro-9H-pyrido[3,4-b]indole-3-carboxyl]-D-leucyl-L-aspartic acid amide] was 4.00. As for `CCCCN(CCCC)C(=O)c1ccccc1NC(=O)[C@H]1Cc2c([nH]c3ccccc23)CN1C(=O)OCc1ccccc1` [Example 22], the figure is less than 5.00. In the case of `Cc1cccc(NC(=O)N2Cc3[nH]c4ccccc4c3C[C@@H]2C(=O)N[C@@H](COCc2ccccc2)C(=O)N[C@@H](CC(=O)O)C(N)=O)c1` [Example 64], the negative-log IC50 (pIC50) was 4.54.
